Entries after “also recorded” stand apart in the source; their conditions may differ.
Assays:
[1] = test system: primary cell culture of rat cortical neurons; assay: Morphological evaluation of neurite length (MAP2 staining) in primary cultures; assay type: cell-based; settings: for Increase respect to control (culture A): neurite length relative to control culture A; for Increase respect to control (culture A) / Increase of average neurite length: overall concentration 10 μM (culture B: 40 ng mL−1 bFGF), 6 days incubation; for Increase of average neurite length: control culture A 280; for Effect on neurite extension/length (in words): overall concentration 10 μM, compared to control culture A
Experimental: Eight primary cellular cultures were prepared as described in Abe K et al. “Effects of recombinant human basic fibroblast growth factor and its modified protein CS23 on survival of primary cultured neurons from various regions of fetal rat brain.”, Jpn J Pharmacol 1990, 53 (2): 221-7. All operations were carried out under sterile conditions.
Neuronal cells were separated from cerebral hemispheres of rat fetuses of 18 days (Japan SLC, Inc.) and suspended in 10% FBS/MEM, then seeded at 9000 cells cm^−2 in poly-L-lysine plates.
After 24 hours, the culture medium was replaced with a serum-free medium, specific for the growth of neurons (Neurobasal Medium) supplemented with B27.
After 6 days incubation, the cells of the eight cultures were fixed with 4% formaldehyde.
The eight cultures were then evaluated regarding the length of neurites at the microscopic level. The neurons were subjected to immunohistochemical staining for the microtubule-associated protein-2 (MAP2) according to the histochemical method for the length of neurites, as described in Fukuyama Y et al. “Neurotrophic activity of honokiol on the cultures of fetal rat cortical neurons” Bioorg. Med Chem. Lett 12, 1163-66 (2002). The length of the most extended neurite of the whole cellular body was measured and calculated by using software programs Lumina Vision and Mac-SCOPE, according to the above-mentioned method described in Y. Fukuyama et al. (2002). The morphometric analyses were performed by measuring the length of the longest neurite from each neuron using Lumina Vision and Mac-Scope software (Yoshiyasu Fukuyama et al. 2002).

[2] = test system: cultured rat cortical neurons; settings: primary cultures; cited from earlier work
[3] = test system: symptoms of diabetic polyneuropathy and sciatic pain; settings: cited from earlier work

| Compound | Increase respect to control (culture A) [1] | Increase of average neurite length [1] | Effect on neurite extension/length (in words) [1] | Neurite growth and neuron survival (in words) [2] | Side effects such as nausea, vomiting and dizziness ([3]; daily doses 600, 1200 and 1800 mg) | Daily dose providing the best risk/benefit ratio ([3]; treatment of symptoms of diabetic polyneuropathy and sciatic pain) |
| --- | --- | --- | --- | --- | --- | --- |
| C=CCc1ccc(O)c(-c2ccc(O)c(CC=C)c2)c1 [Culture H, honokiol] | 1.02 | 287 (p = ns) μm | stimulated neurite growth in a negligible way | able to promote neurite growth; also recorded: capable of increasing the survival and development of neurons | – | – |
| O=C(O)CCCCC1CCSS1 (stereo not drawn) [Culture G, alpha-lipoic acid] | 1.01 | 285 (p = ns) μm | stimulated neurite growth in a negligible way | – | dose-dependent increase of the side effects | 600 mg |
| Culture B: Human recombinant fibroblast growth factors (bFGF), 40 ng mL−1, supplied by Upstate Biotechnology | 1.05 | 295 (p = ns) μm | – | – | – | – |

Reference: patent US9642834B2, “Composition comprising alpha-lipoic acid and honokiol for treating neuropathies” (Giellepi S.p.A., priority 2012, dated 2017)
